System: 422866-222-R5-J1-PDC complex spheroids viability
Experiment: Anticancer human tumor 422866-222-R5-J1-PDC patient-derived pancreatic adenocarcinoma cell line growth inhibition [RAS]
Conditions: for IC50: curve of first compound; for viability, T/C: stronger effect = lower value; active = viability on the fitted dose curve at most 10% of control; inactive = the rest
In short: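 Agents were tested in combination matrices in half-log decrements from a top concentration at or near clinical Cmax (10 microM if undetermined). Targets were multi-cell spheroids of tumour lines plus HUVEC and MSC stromal cells.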

[1] = second compound 0.00316 µM, first compound 0.0316 µM
[2] = second compound 0.00316 µM, first compound 0.1 µM
[3] = second compound 0.01 µM, first compound 0.0316 µM
[4] = second compound 0.01 µM, first compound 0.1 µM
[5] = second compound 0.0316 µM, first compound 0.0316 µM
[6] = second compound 0.0316 µM, first compound 0.1 µM
[7] = second compound 0.1 µM, first compound 0.0316 µM
[8] = second compound 0.1 µM, first compound 0.1 µM
[9] = second compound 0.316 µM, first compound 0.0316 µM
[10] = second compound 0.316 µM, first compound 0.1 µM
[11] = second compound 1 µM, first compound 0.0316 µM
[12] = second compound 1 µM, first compound 0.1 µM
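Note: spheroids exposed to compounds for 7 days.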
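Throughout, for viability, T/C: 100% = DMSO vehicle control viability.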

CC(C)NCC(C(=O)N1CCN(c2ncnc3c2C(C)CC3O)CC1)c1ccc(Cl)cc1 (centres undefined) + C=CC(=O)N1CCN(c2nc(OCC3CCCN3C)nc3c(F)c(-c4nc(N)cc(C)c4C(F)(F)F)c(Cl)cc23)C(C)C1
inactive: viability, T/C [1] 27.2% | viability, T/C [2] 32.1% | viability, T/C (second compound 0.00316 µM, first compound 0.316 µM) 19.7% | viability, T/C (second compound 0.00316 µM, first compound 1 µM) 17% | viability, T/C (second compound 0.00316 µM, first compound 3.16 µM) 16.7% | viability, T/C (second compound 0.00316 µM, first compound 10 µM) 16.7% | viability, T/C [3] 23.3% | viability, T/C [4] 24.8% | viability, T/C (second compound 0.01 µM, first compound 0.316 µM) 17.9% | viability, T/C (second compound 0.01 µM, first compound 1 µM) 12.2% | viability, T/C (second compound 0.01 µM, first compound 3.16 µM) 12.6% | viability, T/C (second compound 0.01 µM, first compound 10 µM) 13.3% | viability, T/C [5] 27.9% | viability, T/C [6] 22% | viability, T/C (second compound 0.0316 µM, first compound 0.316 µM) 14.4% | viability, T/C (second compound 0.0316 µM, first compound 1 µM) 14.9% | viability, T/C (second compound 0.0316 µM, first compound 3.16 µM) 14.2% | viability, T/C (second compound 0.0316 µM, first compound 10 µM) 14.3% | viability, T/C [7] 21.6% | viability, T/C [8] 19.2% | viability, T/C (second compound 0.1 µM, first compound 0.316 µM) 15.2% | viability, T/C (second compound 0.1 µM, first compound 1 µM) 12% | viability, T/C (second compound 0.1 µM, first compound 3.16 µM) 13% | viability, T/C (second compound 0.1 µM, first compound 10 µM) 12.8% | viability, T/C [9] 24.1% | viability, T/C [10] 16.4% | viability, T/C (second compound 0.316 µM, first compound 0.316 µM) 14.8% | viability, T/C (second compound 0.316 µM, first compound 1 µM) 13.6% | viability, T/C (second compound 0.316 µM, first compound 3.16 µM) 12.7% | viability, T/C (second compound 0.316 µM, first compound 10 µM) 16.6% | viability, T/C [11] 23.6% | viability, T/C [12] 15.2% | viability, T/C (second compound 1 µM, first compound 0.316 µM) 16.7% | viability, T/C (second compound 1 µM, first compound 1 µM) 12.5% | viability, T/C (second compound 1 µM, first compound 3.16 µM) 13.9% | viability, T/C (second compound 1 µM, first compound 10 µM) 12.6%
< 31.6 nM: IC50 (second compound 0.00316 µM) | IC50 (second compound 0.01 µM) | IC50 (second compound 0.0316 µM) | IC50 (second compound 0.1 µM) | IC50 (second compound 0.316 µM) | IC50 (second compound 1 µM)

CC(C)n1nc(-c2ccc3oc(N)nc3c2)c2c(N)ncnc21 + C=CC(=O)N1CCN(c2nc(OCC3CCCN3C)nc3c(F)c(-c4nc(N)cc(C)c4C(F)(F)F)c(Cl)cc23)C(C)C1
< 0.316 nM: IC50 (second compound 0.00316 µM) | IC50 (second compound 0.01 µM) | IC50 (second compound 0.0316 µM) | IC50 (second compound 0.1 µM) | IC50 (second compound 0.316 µM) | IC50 (second compound 1 µM)
inactive: viability, T/C (second compound 0.00316 µM, first compound 0.000316 µM) 34.9% | viability, T/C (second compound 0.00316 µM, first compound 0.001 µM) 35.1% | viability, T/C (second compound 0.00316 µM, first compound 0.00316 µM) 30.5% | viability, T/C (second compound 0.00316 µM, first compound 0.01 µM) 23.2% | viability, T/C [1] 18.3% | viability, T/C [2] 14.8% | viability, T/C (second compound 0.01 µM, first compound 0.000316 µM) 30.3% | viability, T/C (second compound 0.01 µM, first compound 0.001 µM) 28.9% | viability, T/C (second compound 0.01 µM, first compound 0.00316 µM) 22.9% | viability, T/C (second compound 0.01 µM, first compound 0.01 µM) 19.9% | viability, T/C [3] 14.3% | viability, T/C [4] 14.1% | viability, T/C (second compound 0.0316 µM, first compound 0.000316 µM) 29.9% | viability, T/C (second compound 0.0316 µM, first compound 0.001 µM) 26.5% | viability, T/C (second compound 0.0316 µM, first compound 0.00316 µM) 23.4% | viability, T/C (second compound 0.0316 µM, first compound 0.01 µM) 18.2% | viability, T/C [5] 14% | viability, T/C [6] 12.3% | viability, T/C (second compound 0.1 µM, first compound 0.000316 µM) 25.5% | viability, T/C (second compound 0.1 µM, first compound 0.001 µM) 22.9% | viability, T/C (second compound 0.1 µM, first compound 0.00316 µM) 18.1% | viability, T/C (second compound 0.1 µM, first compound 0.01 µM) 18.3% | viability, T/C [7] 16.8% | viability, T/C [8] 11.3% | viability, T/C (second compound 0.316 µM, first compound 0.000316 µM) 25% | viability, T/C (second compound 0.316 µM, first compound 0.001 µM) 20.9% | viability, T/C (second compound 0.316 µM, first compound 0.00316 µM) 20.6% | viability, T/C (second compound 0.316 µM, first compound 0.01 µM) 18.1% | viability, T/C [9] 13.6% | viability, T/C [10] 10.5% | viability, T/C (second compound 1 µM, first compound 0.000316 µM) 21.3% | viability, T/C (second compound 1 µM, first compound 0.001 µM) 20.2% | viability, T/C (second compound 1 µM, first compound 0.00316 µM) 24.6% | viability, T/C (second compound 1 µM, first compound 0.01 µM) 17.2% | viability, T/C [11] 17.3% | viability, T/C [12] 13.8%
